Assay results taken from US20040101576A1, “IMMUNOPOTENTIATORS” (priority 1997, published 2004).

Test system: Langerhans' cells
Details: antigen (trinitrobenzenesulfonic acid, 1 mg/ml) added, Langerhans' cells UV irradiated, 3 mM glutathione added during irradiation; antigen only 17,500, antigen + UV 5,000 (FIG. 1)
Method: An antigen (trinitrobenzenesulfonic acid, 1 mg/ml) was added to Langerhans' cells and, after cleaning, they were mixed and cultured with T cells obtained by purifying lymph gland cell floating fluid with a nylon fiber column (Wako).

## N[C@@H](CCC(=O)N[C@@H](CS)C(=O)NCC(=O)O)C(=O)O [glutathione]
  multiplication of the T cells: 11,000
